Earlier results on one substance are cited in patent US11872245B2, “Antiseptic polymer and synthesis thereof” (TRIMPH IP PTY LIMITED, priority 2015, dated 2024).

The target of one series is IIb3 (Homo sapiens, UniProt P05106+P08514).
In a further series the target is V3 (Homo sapiens, UniProt P05106+P06756).
Sequence of V3 (P06756 31-1048): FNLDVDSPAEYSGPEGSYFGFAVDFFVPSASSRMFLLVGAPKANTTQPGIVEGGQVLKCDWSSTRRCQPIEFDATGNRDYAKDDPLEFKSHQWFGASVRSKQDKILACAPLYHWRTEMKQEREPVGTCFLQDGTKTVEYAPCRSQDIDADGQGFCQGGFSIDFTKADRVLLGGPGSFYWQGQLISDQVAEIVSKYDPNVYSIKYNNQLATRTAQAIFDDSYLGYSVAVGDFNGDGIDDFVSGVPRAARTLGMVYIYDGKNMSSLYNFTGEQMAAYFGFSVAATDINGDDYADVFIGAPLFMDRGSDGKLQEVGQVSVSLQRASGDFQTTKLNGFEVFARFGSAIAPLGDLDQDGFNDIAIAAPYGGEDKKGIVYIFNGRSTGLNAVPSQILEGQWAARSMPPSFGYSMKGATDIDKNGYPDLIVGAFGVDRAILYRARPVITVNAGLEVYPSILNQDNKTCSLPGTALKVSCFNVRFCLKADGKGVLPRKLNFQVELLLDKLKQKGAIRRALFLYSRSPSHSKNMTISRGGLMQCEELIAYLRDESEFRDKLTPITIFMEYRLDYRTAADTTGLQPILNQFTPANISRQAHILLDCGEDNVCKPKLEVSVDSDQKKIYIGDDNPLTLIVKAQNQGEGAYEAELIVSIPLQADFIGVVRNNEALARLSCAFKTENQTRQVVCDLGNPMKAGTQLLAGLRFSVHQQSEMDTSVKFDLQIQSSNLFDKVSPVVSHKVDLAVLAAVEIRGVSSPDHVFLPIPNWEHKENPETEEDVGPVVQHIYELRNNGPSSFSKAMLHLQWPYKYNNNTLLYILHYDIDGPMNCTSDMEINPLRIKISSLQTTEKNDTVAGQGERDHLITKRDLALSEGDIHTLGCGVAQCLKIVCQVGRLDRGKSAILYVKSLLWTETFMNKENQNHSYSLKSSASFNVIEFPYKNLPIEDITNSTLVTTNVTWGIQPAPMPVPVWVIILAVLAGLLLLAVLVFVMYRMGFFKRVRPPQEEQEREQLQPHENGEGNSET
Sequence of V3 (P05106 27-788): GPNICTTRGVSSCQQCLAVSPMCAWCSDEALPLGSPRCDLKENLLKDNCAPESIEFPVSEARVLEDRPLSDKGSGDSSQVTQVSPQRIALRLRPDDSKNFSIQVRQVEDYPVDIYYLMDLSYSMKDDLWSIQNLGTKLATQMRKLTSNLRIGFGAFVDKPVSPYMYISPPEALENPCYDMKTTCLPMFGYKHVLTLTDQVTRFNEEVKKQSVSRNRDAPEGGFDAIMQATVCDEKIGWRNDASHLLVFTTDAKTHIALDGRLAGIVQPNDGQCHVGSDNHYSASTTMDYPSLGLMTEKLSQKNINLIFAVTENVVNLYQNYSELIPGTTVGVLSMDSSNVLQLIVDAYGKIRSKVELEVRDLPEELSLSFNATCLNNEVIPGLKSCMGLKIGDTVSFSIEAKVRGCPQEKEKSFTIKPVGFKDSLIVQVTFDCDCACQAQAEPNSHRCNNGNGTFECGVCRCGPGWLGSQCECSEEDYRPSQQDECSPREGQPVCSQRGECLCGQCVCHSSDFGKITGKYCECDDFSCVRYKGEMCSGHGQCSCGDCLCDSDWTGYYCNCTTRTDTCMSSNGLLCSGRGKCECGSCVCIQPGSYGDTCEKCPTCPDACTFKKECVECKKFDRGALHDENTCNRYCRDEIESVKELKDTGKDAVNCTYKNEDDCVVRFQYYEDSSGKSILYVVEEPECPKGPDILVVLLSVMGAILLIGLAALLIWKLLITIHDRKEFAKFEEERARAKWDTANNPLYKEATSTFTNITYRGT

Sequence of IIb3 (P08514 32-1039): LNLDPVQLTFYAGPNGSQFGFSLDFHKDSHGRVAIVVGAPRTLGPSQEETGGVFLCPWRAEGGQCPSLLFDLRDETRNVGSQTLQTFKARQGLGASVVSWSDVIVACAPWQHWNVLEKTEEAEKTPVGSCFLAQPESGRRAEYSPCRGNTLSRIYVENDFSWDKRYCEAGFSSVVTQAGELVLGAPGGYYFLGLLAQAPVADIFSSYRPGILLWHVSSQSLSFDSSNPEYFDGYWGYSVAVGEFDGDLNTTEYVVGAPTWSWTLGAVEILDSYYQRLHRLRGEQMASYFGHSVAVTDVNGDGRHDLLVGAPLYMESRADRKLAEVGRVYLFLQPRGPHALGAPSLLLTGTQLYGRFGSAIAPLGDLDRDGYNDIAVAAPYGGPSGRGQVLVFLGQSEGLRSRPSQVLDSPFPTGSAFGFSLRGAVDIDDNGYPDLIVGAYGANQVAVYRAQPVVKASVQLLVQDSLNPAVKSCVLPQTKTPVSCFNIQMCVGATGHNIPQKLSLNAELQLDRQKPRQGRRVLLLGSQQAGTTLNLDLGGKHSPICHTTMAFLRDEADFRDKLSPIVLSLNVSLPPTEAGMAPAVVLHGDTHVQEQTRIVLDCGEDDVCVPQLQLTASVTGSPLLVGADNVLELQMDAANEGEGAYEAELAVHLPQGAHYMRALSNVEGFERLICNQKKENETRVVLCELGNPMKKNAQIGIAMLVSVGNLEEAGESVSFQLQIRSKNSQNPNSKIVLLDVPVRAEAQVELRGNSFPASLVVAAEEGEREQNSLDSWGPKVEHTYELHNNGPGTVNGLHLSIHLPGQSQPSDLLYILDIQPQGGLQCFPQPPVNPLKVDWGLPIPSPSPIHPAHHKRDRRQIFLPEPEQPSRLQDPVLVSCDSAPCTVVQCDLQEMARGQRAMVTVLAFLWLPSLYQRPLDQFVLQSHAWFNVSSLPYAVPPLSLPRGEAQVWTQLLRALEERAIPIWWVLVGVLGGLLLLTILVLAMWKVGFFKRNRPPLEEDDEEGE
Sequence of IIb3 (P05106 27-788): as the sequence (P05106 27-788) above

Regarding {GLY}{ARG}{GLY}{ASP}{SER} [GRGDS], the affinity entry at IIb3 and at V3 was “intermediate affinity” in each case.
